Experiments:
Bos taurus [1] = species: Bos taurus; assay: Displacement of [3H]flunitrazepam from benzodiazepine receptor in bovine brain membrane at 10 uM by liquid scintillation counting; assay type: cell membranes
Bos taurus [2] = species: Bos taurus; settings: Brain, Membrane, 1 uM
Description: Displacement of [3H]flunitrazepam from benzodiazepine receptor in bovine brain membrane at 1 uM by liquid scintillation counting

Row | Structure (SMILES) | inhibition (Bos taurus [1]) [%] | inhibition (Bos taurus [2]) [%]
1 | Cc1ccc(-n2nc(C)c3c(=O)oc4ccccc4c32)cc1 | 66 | –
2 | Cc1nn(-c2cccc(Cl)c2)c2c1oc(=O)c1ccccc12 | 28 | –
3 | Cc1cccc(-n2nc(C)c3oc(=O)c4ccccc4c32)c1 | 40 | –
4 | Cc1ccc(-n2nc(C)c3oc(=O)c4ccccc4c32)cc1 | 13 | –
5 | Cc1nn(-c2ccccc2)c2c1oc(=O)c1ccccc12 | 20 | –
6 | Cc1nn(-c2ccccc2)c2c1oc(=O)c1ccc(Cl)cc12 | 35 | –
7 | O=c1oc2c(-c3ccccc3)nn(-c3ccccc3)c2c2ccccc12 | 5 | –
8 | Cc1nn(-c2cccc(Cl)c2)c2c1c(=O)oc1ccccc12 | 86 | –
9 | Cc1nn(-c2ccccc2)c2c1oc(=O)c1cc(Cl)ccc12 | 0 | –
10 | Cc1cccc(-n2nc(C)c3c(=O)oc4ccccc4c32)c1 | 78 | –
11 | Cc1ccc2c(c1)c(=O)oc1c(C)nn(-c3ccccc3)c12 | 6 | –
12 | Cc1nn(-c2ccccc2)c2c1c(=O)oc1ccccc12 | 76 | –
13 | O=c1oc2cnn(-c3ccccc3)c2c2ccccc12 | 54 | –
14 | CN1C(=O)CN=C(c2ccccc2)c2cc(Cl)ccc21 | – | 98
15 | O=c1oc2ccccc2c2c1c(-c1ccccc1)nn2-c1ccccc1 | 10 | –

Reference: ChEMBL document CHEMBL2040735, “Synthesis, benzodiazepine receptor binding and molecular modelling of isochromeno[4,3-c]pyrazol-5(1H)-one derivatives” (Eur J Med Chem, 2012)
